Data reported in patent US9623077B2, “Use of peptide for alleviating pain” (Academia Sinica, priority 2015, dated 2017).
Where no end group is shown, it is not given here.

Legend:
CCI rats [1] = format: in vivo, rat; conditions: i.t. administration, from peak effects of % MPE
Procedure: Implantation of i.t. catheters in rats was performed.
Thermal hyperalgesia was examined using an IITC analgesiometer (IITC Inc., Woodland Hills, Calif., USA). […] Paw withdrawal latency (PWL) in seconds was measured with a cutoff time of 30 seconds. PWL was recorded at 30, 60, 90, 120, 150, and 180 minutes after PCD-1 or gabapentin injection. PWL (s) was transformed to a percentage of the maximum possible effect (% MPE) using the following formula: % MPE=(post-drug latency−baseline)/(cutoff−baseline)×100%, where the post-drug latency was the response measured at 0, 30, 60, 90, 120, 150, or 180 minutes after injection of PCD-1, gabapentin, or vehicle. The baseline was the response measured immediately prior to i.t. injection, and the cutoff time was 30 seconds.

RAW264.7 cells = system: RAW264.7 cells; design: dose or concentration left out as unconfirmed; conditions: PCD-1 for 24 h
Procedure: (A) RAW264.7 cells are treated with the indicated doses of PCD-1 for 24 h, and cell viability is then measured by Alamar blue assay to assess cytotoxicity.
In order to investigate regulation of iNOS and COX-2 by PCD-1, mouse macrophage and immune cells were treated with non-cytotoxic doses of PCD-1, and the effects on protein expression were examined.

CCI rats [2] = system: CCI rats
Procedure: The rat model of chronic constriction injury (CCI) was performed by following the previous reports or research. Implantation of i.t. catheters in rats was performed. The i.t. catheters (PE5 tubes: 9-cm long, 0.008-inch inner diameter, 0.014-inch outer diameter; Spectranetics, Colorado Springs, Colo., USA) were inserted via the atlanto-occipital membrane into the i.t. space at the level of the lumbar enlargement of the spinal cord, and externalized and fixed to the cranial aspect of the head. Five days after i.t. catheterization, CCI or mononeuropathy was induced by following a previous report. The 5-mm-long nerve segment of right sciatic nerve at the mid-thigh level was isolated from the surrounding tissues. Four ligatures (4-0 chromic gut) were loosely tied around the sciatic nerve with 1-mm intervals, and the wound was closed with sutures.
The narrow beam used in the present invention was a wooden beam 80 cm in length and 2.5 cm in width, suspended 100 cm from the ground by wooden supports at either end. Foam padding (1 m wide and approximately 12 cm thick) was placed beneath the beam to prevent injury to the rat in case of a fall. The cutoff time to cross the beam was 15 seconds for each rat. Rats were pre-trained before the test.

rats = rats treated with PCD-1

Molecule	median effective dose (ED50) for anti-thermal hyperalgesia (CCI rats [1])	Proliferation of RAW264.7 cells (cell viability, Alamar blue) (RAW264.7 cells)	latency to initiate crossing and total time to cross the beam (CCI rats [2]; CCI rats+PCD-1 (20 μg) vs CCI rats+vehicle, 0 to 480 minutes)	locomotor function (CCI rats [2]; rats, i.t. 20 μg)	alterations of external behavior (rats)
NCC1(CC(=O)O)CCCCC1 [gabapentin, reference compound]	2.3 ± 1.5 µg				
FFHHIFRGIVHVGKTIHRLVTG [PCD-1, Piscidin-1] [listing 1 of 2 here]	9.5 ± 3.2 µg				
FFHHIFRGIVHVGKTIHRLVTG [PCD-1, Piscidin-1] [listing 2 of 2 here]		unaffected	No significant differences	did not affect	nor did it result in any obvious alterations
